Assay type in all cases: cell-based, Staphylococcus aureus
For one assay, the system named is MW2 (USA400) wild-type. Briefly: MIC by microdilution (CLSI). From the text:
(§1) The present invention was described based on a series of experiments examining the biological basis for CA-MRSA strains versus HA-MRSA strains, focusing on the role of PBPs in CA-MRSA and generally in β-lactam resistance. Experiments were first performed using mutants of various PBPs. In-frame deletion mutants of the genes encoding PBP3 (MW1504) and PBP4 (MW0604), pbp3 and pbp4 respectively, were generated in the CA-MRSA strain MW2 and in HA-MRSA strain COL using the temperature-sensitive allelic replacement vector pMAD (Arnaud, M. et al. 2004. Appl. Environ. Microbiol. 70:6887-6891). PBP4 was also deleted in the HA-MRSA strains Mu50 and N315 and in the CA-MRSA strain USA300. […] Minimum inhibitory concentrations (MICs) were determined according to the Clinical and Laboratory Standards Institute and are a standard method for defining antibiotic efficacy against different organisms. Bacteria, grown to an OD650=1, were added to cation-supplemented Mueller Hinton broth (CSMHB) to achieve a final concentration of 5×10^5 CFU/ml.
(§2) Although PBP4, similar to PBP2A, binds with low affinity to many β-lactams, PBP4 binds cefoxitin, a semi-synthetic β-lactam derived from cephamycin C, with high affinity (Nair, S. R. and C. E. Cherubin. 1978. Antimicrob. Agents Chemother. 14:866-875).
(§3) Minimum inhibitory concentrations and minimum bactericidal concentrations (MIC and MBC, respectively) were determined for each isolate in triplicate by microdilution techniques with an inoculum of 5×10^5 CFU/ml according to the Clinical and Laboratory Standards Institute guidelines. Aliquots (5 μl) from clear wells were plated onto TSA drug-free plates for the determination of MBCs, followed by incubation at 37° C. for 24 and 48 hours. For the mutant strains, each one of the three clones was tested. MIC data were reported as median values from at least three independent experiments for each antibiotic. Also, strains containing pEPSA5-based plasmids were tested with and without xylose induction, but chloramphenicol was not added to avoid interference with beta-lactam resistance evaluation. […] The correct inocula were confirmed by plating serial dilutions on agar.

The subject of a further assay is COL wild-type. Description: MIC by microdilution (CLSI).
From the text: as §1, §2, §3

For the next assay, the system named is USA300 wild-type. Briefly: MIC by microdilution (CLSI).
From the text: as §1, §2, §3

The test system of the next assay is Mu50 wild-type. Description: MIC by microdilution (CLSI).
From the text: as §1, with “Experiments” for “The present invention was described based on a series of experiments examining the biological basis for CA-MRSA strains versus HA-MRSA strains, focusing on the role of PBPs in CA-MRSA and generally in β-lactam resistance. Experiments”
as §3
(In general: Broth dilution looks for growth in wells or tubes with falling amounts of substance.)

The next assay relates to MW2 ex Δpbp3/4. Description: MIC by microdilution (CLSI).
From the text: as §1, with “Experiments” for “The present invention was described based on a series of experiments examining the biological basis for CA-MRSA strains versus HA-MRSA strains, focusing on the role of PBPs in CA-MRSA and generally in β-lactam resistance. Experiments”
as §3

The subject of a further assay is MW2 (USA400) CA-MRSA. Briefly: Minimum bactericidal concentration (MBC). Particulars: for combination: MBC of oxacillin with ¼ MIC cefoxitin. Here is the method:
as §3

In the next assay the test system is USA300 CA-MRSA. Description: Minimum bactericidal concentration (MBC). As to conditions: for combination: MBC of oxacillin with ¼ MIC cefoxitin. Here is the method: as §3
Setting [1] is: Staphylococcus aureus, read-out: MICs.

The record followed here is patent US9427468B2, “Compositions and methods for diagnosing and treating community-acquired methicillin-resistant Staphylococcus aureus” (priority 2007, dated 2016).

In brackets after ≈: the same amount, converted by molar mass.

On to `CO[C@@]1(NC(=O)Cc2cccs2)C(=O)N2C(C(=O)O)=C(COC(N)=O)CS[C@@H]21` [CX, cefoxitin], for which the MIC in the assay on MW2 (USA400) wild-type (Staphylococcus aureus, USA400, read-out: MICs) is 64 µg/mL (≈ 150 µM); with COL wild-type (setting [1]), 128 µg/mL (≈ 299 µM); with USA300 wild-type (Staphylococcus aureus, USA300, read-out: MICs) it was 64 µg/mL (≈ 150 µM); in the assay with Mu50 wild-type (setting [1]), 256 µg/mL (≈ 599 µM); with MW2 ex Δpbp3/4 (setting [1]), 32 µg/mL (≈ 74.9 µM). For the same compound, the “MBC 48 hr” value with MW2 (USA400) CA-MRSA and in the assay with USA300 CA-MRSA was > 256 µg/mL throughout.

As for `Cc1onc(-c2ccccc2)c1C(=O)N[C@@H]1C(=O)N2[C@@H]1SC(C)(C)[C@@H]2C(=O)O` [OX, oxacillin], the “MICs 48 hr” value in the assay on MW2 (USA400) wild-type (MW2, 48 hr, for combinations: MIC of oxacillin with ¼ MIC of second drug) is 64 µg/mL; with COL wild-type (COL, 48 hr, for combination: MIC of oxacillin with ¼ MIC cefoxitin), 256 µg/mL; with USA300 wild-type (USA300, 48 hr, for combinations: MIC of oxacillin with ¼ MIC of second drug) it was 64 µg/mL; in the assay on Mu50 wild-type (Mu50, 48 hr, for combination: MIC of oxacillin with ¼ MIC cefoxitin), 256 µg/mL. Also, the MICs was found to be 64 µg/mL against MW2 (USA400) wild-type (Table 1, MW2 (USA400) wild-type); 256 µg/mL in the assay on COL wild-type (Table 1, COL wild-type); 64 µg/mL against USA300 wild-type (Table 1, USA300 wild-type); 256 µg/mL in the assay with Mu50 wild-type (Table 1, Mu50 wild-type); 1 µg/mL against MW2 ex Δpbp3/4 (Table 1, MW2 ex Δpbp3/4). Further, the “MBC 48 hr” value in the assay with MW2 (USA400) CA-MRSA and with USA300 CA-MRSA was 256 µg/mL in each case.
